IC50 data for 18 compounds are collected here from US20090227600A1, “4-(PYRAZINE-2-YL) -PYRROLIDINE -2-CARBOXYLIC ACID COMPOUNDS AND DERIVATIVES THEREOF AS HEPATITIS C VIRUS INHIBITORS” (priority 2004, published 2009).

Assay [1] has as its system Huh-7 HCV replicon cells (genotype 1a). The experiment in a line: Replicon ELISA cell based assay, genotype 1a. Further details: species or system HCV genotype 1a. The settings on record: Hepatitis C virus, Huh-7 genotype 1a replicon, 72 hours. Here is the method: (§1) 100 μL of medium containing 10% FCS were added to each well of clear, flat-bottomed 96 well microplates, excepting wells in the top row. Test compound was diluted in assay medium to twice the final required starting concentration from a 40 mM stock solution in DMSO. 200 μL of the starting dilution were introduced into two wells each in the top row and doubling dilutions made down the plate by the sequential transfer of 100 μL aliquots with thorough mixing in the wells; the final 100 μL were discarded. The two bottom rows were not used for compound dilutions. Huh-7 HCV replicon cell monolayers nearing confluency were stripped from growth flasks with versene-trypsin solution and the cells were resuspended in assay medium at either 2×10^5 cells/mL (sub-line 5-15; genotype 1b; Lohmann, V., Komer, F., Koch, J-O., Herian, U., Thielmann, L. And Bartenschlager, R., 1999, Science, 285, pp 110-113) or at 3×10^5 cells/mL (genotype 1a; Gu, B., Gates, A. T., Isken, O., Behrens, S. E. and Sarisky, R. T., J. Virol., 2003, 77, 5352-5359). 100 μL of cell suspension were added to all wells and the plates incubated at 37° C. for 72 hours in a 5% CO2 atmosphere.
(§2) Following incubation, the assay medium was aspirated from the plates. The cell sheets were washed by gentle immersion in phosphate buffered saline (PBS), which was then aspirated off, and fixed with acetone:methanol (1:1) for 5 minutes. Following a further wash with PBS, 100 μL of ELISA diluent (PBS+0.05% v/v Tween 20+2% w/v skimmed milk powder) were added to all wells and the plates incubated at 37° C. for 30 minutes on an orbital platform. The diluent was removed and each well then received 50 μL of a 1/200 dilution of anti-HCV specific, murine, monoclonal antibody (either Virostat #1872 or #1877), except for wells in one of the compound-free control rows which received diluent alone to act as negative controls. The plates were incubated at 37° C. for 2 hours and washed 3 times with PBS/0.05% Tween 20, then 50 μL of horseradish peroxidase conjugated, anti-mouse, rabbit polyclonal serum (Dako #P0260), diluted 1/1000, were added to all wells. The plates were incubated for a further hour, the antibody removed and the cell sheets washed 5 times with PBS/Tween and blotted dry. The assay was developed by the addition of 50 μL of ortho-phenylenediamine/peroxidase substrate in urea/citrate buffer (SigmaFast, Sigma #P-9187) to each well, and colour allowed to develop for up to 15 minutes. The reaction was stopped by the addition of 25 μL per well of 2 M sulphuric acid and the plates were read at 490 nm on a Fluostar Optima spectrophotometer.
(§3) The substrate solution was removed and the plates were washed in tap water, blotted dry and the cells stained with 5% carbol fuchsin in water for 30 minutes. The stain was discarded and the cell sheets washed, dried and examined microscopically to assess cytotoxicity.
(§4) The absorbance values from all compound-free wells that had received both primary and secondary antibodies were averaged to obtain a positive control value. The mean absorbance value from the compound-free wells that had not received the primary antibody was used to provide the negative (background) control value. The readings from the duplicate wells at each compound concentration were averaged and, after the subtraction of the mean background from all values, were expressed as a percentage of the positive control signal. The quantifiable and specific reduction of expressed protein detected by the ELISA in the presence of a drug can be used as a measure of replicon inhibition. GraFit software was used to plot the curve of percentage inhibition against compound concentration and derive the 50% inhibitory concentration (IC50) for the compound.
In general terms: Replicon systems follow genome replication, usually without infectious particles.

Assay [2] concerns Huh-7 HCV replicon cells (sub-line 5-15; genotype 1b). Put plainly: Replicon ELISA cell based assay, genotype 1b. Further details: species or system HCV genotype 1b. The settings on record: Hepatitis C virus, Huh-7 genotype 1b replicon (sub-line 5-15), 72 hours. Here is the method:
as §1, §2, §3, §4

As to `COc1cc(C(=O)N2[C@@H](c3nccs3)[C@@H](c3cnccn3)C[C@@]2(CC(C)C)C(=O)O)ccc1C(C)(C)C` (racemic) [Compound A, rel-(2S,4S,5R)-2-Isobutyl-1-(4-tert-butyl-3-methoxybenzoyl)-4-(pyrazin-2-yl)-5-(1,3-thiazol-2-yl)pyrrolidine-2-carboxylic acid, reference compound], the IC50 is 10 to 100 µM in assay [1] and 0.1 to 10 µM in assay [2].

On to `COc1cc(C(=O)N2[C@@H](c3nccs3)[C@@H](c3cnccn3)C[C@@]2(Cc2ccccn2)C(=O)O)ccc1C(C)(C)C` (racemic) [Compound C, rel-(2R,4S,5R)-1-(4-tert-Butyl-3-methoxybenzoyl)-2-(pyridin-2-ylmethyl)-4-(pyrazin-2-yl)-5-(1,3-thiazol-2-yl)pyrrolidine-2-carboxylic acid, reference compound], for which the IC50 in assay [1] was 10 to 100 µM; in assay [2], 0.1 to 10 µM.

As for `COc1cc(C(=O)N2[C@@H](c3nccs3)[C@@H](c3cnccn3)C[C@@]2(Cc2c[nH]cn2)C(=O)O)ccc1C(C)(C)C` (racemic) [Compound D, rel-(2R,4S,5R)-1-(4-tert-Butyl-3-methoxybenzoyl)-2-(1H-imidazol-4-yl-methyl)-4-(pyrazin-2-yl)-5-(1,3-thiazol-2-yl)-pyrrolidine-2-carboxylic acid, reference compound], the IC50 in assay [1] was above 100 µM; in assay [2] it was 0.1 to 10 µM.

As to `COc1cc(C(=O)N2[C@@H](c3cncs3)[C@@H](c3cnccn3)C[C@@]2(CCSC)C(=O)O)ccc1C(C)(C)C` (racemic) [Compound E, rel-(2R,4S,5R)-1-(4-tert-Butyl-3-methoxybenzoyl)-2-(2-(methylthio)ethyl)-4-(pyrazin-2-yl)-5-(1,3-thiazol-5-yl)-pyrrolidine-2-carboxylic acid, reference compound], the figures for the IC50 in assay [1] and in assay [2] were 10 to 100 µM and 0.1 to 10 µM, respectively.

Take `COc1cc(C(=O)N2[C@@H](c3nccs3)[C@@H](c3cnccn3)C[C@@]2(CCS(C)(=O)=O)C(=O)O)ccc1C(C)(C)C` (racemic) [Compound F, rel-(2R,4S,5R)-1-(4-tert-Butyl-3-methoxybenzoyl)-2-(2-(methylsulphonyl)ethyl)-4-pyrazin-2-yl-5-(1,3-thiazol-2-yl)-pyrrolidine-2-carboxylic acid, reference compound]: the IC50 in assay [1] is above 100 µM; in assay [2] it was above 10 µM.

In the case of `COc1cc(C(=O)N2[C@@H](c3nccs3)[C@@H](c3cnccn3)C[C@@]2(Cc2ccccc2)C(=O)O)ccc1C(C)(C)C` (racemic) [Compound G, rel-(2R,4S,5R)-1-(4-tert-Butyl-3-methoxybenzoyl)-2-(phenylmethyl)-4-(pyrazin-2-yl)-5-(1,3-thiazol-2-yl)pyrrolidine-2-carboxylic acid, reference compound], the IC50 fell in the range of 10 to 100 µM in assay [1] and 0.1 to 10 µM in assay [2].

Regarding `COc1cc(C(=O)N2[C@@H](c3nccs3)[C@@H](c3cnccn3)C[C@@]2(Cc2cscn2)C(=O)O)ccc1C(C)(C)C` (racemic) [Example 1, rel-(2R,4S,5R)-1-(3-Methoxy-4-tert-butylbenzoyl)-4-(pyrazin-2-yl)-2-(1,3-thiazol-4-ylmethyl)-5-(1,3-thiazol-2-yl)pyrrolidine-2-carboxylic acid], the results for the IC50 in assay [1] and in assay [2] were below 10 µM and below 0.1 µM, respectively.

As to `COc1cc(C(=O)N2[C@@H](c3nccs3)[C@@H](c3cnccn3)C[C@@]2(Cc2nccs2)C(=O)O)ccc1C(C)(C)C` (racemic) [Example 3, rel-(2R,4S,5R)-1-(3-Methoxy-4-tert-butylbenzoyl)-4-(pyrazin-2-yl)-2-(1,3-thiazol-2-ylmethyl)-5-(1,3-thiazol-2-yl)pyrrolidine-2-carboxylic acid], the IC50 in assay [1] was below 10 µM; in assay [2], below 0.1 µM.

As to `COc1cc(C(=O)N2[C@@H](c3ncc(C)s3)[C@@H](c3cnccn3)C[C@@]2(Cc2ccsn2)C(=O)O)ccc1C(C)(C)C` (racemic) [Example 5, rel-(2R,4S,5R)-1-(3-Methoxy-4-tert-butylbenzoyl)-5-(5-methyl-1,3-thiazol-2-yl)-4-(pyrazin-2-yl)-2-(1,2-thiazol-3-ylmethyl)pyrrolidine-2-carboxylic acid], the IC50 was below 10 µM in assay [1] and below 0.1 µM in assay [2].

For the compound `COc1cc(C(=O)N2[C@@H](c3nccs3)[C@@H](c3cnccn3)C[C@@]2(Cc2ccsn2)C(=O)O)ccc1C(C)(C)C` (racemic) [Example 7, rel-(2R,4S,5R)-1-(3-Methoxy-4-tert-butylbenzoyl)-4-(pyrazin-2-yl)-2-(1,2-thiazol-3-ylmethyl)-5-(1,3-thiazol-2-yl)pyrrolidine-2-carboxylic acid], the figures for the IC50 in assay [1] and in assay [2] were below 10 µM and below 0.1 µM, respectively.

`COc1cc(C(=O)N2[C@@H](c3ncc(C)s3)[C@@H](c3cnccn3)C[C@@]2(Cn2cccn2)C(=O)O)ccc1C(C)(C)C` (racemic) [Example 9, rel-(2R,4S,5R)-1-(3-Methoxy-4-tert-butylbenzoyl)-5-(5-methyl-1,3-thiazol-2-yl)-4-(pyrazin-2-yl)-2-(1H-pyrazol-1-ylmethyl)pyrrolidine-2-carboxylic acid]: the values for the IC50 in assay [1] and in assay [2] were below 10 µM and below 0.1 µM, respectively.

Turning to `COc1cc(C(=O)N2[C@@H](c3nccs3)[C@@H](c3cnccn3)C[C@@]2(Cn2cccn2)C(=O)O)ccc1C(C)(C)C` (racemic) [Example 11, rel-(2R,4S,5R)-1-(3-Methoxy-4-tert-butylbenzoyl)-4-(pyrazin-2-yl)-2-(1H-pyrazol-1-ylmethyl)-5-(1,3-thiazol-2-yl)pyrrolidine-2-carboxylic acid], the IC50 is below 10 µM in assay [1] and below 0.1 µM in assay [2].

For `COc1cc(C(=O)N2[C@@H](c3ncc(C)s3)[C@@H](c3cnccn3)C[C@@]2(Cc2nccs2)C(=O)O)ccc1C(C)(C)C` (racemic) [Example 13, rel-(2R,4S,5R)-1-(3-Methoxy-4-tert-butylbenzoyl)-5-(5-methyl-1,3-thiazol-2-yl)-4-(pyrazin-2-yl)-2-(1,3-thiazol-2-ylmethyl)pyrrolidine-2-carboxylic acid], the concentration for half-maximal inhibition (IC50) in assay [1] is below 10 µM; in assay [2], below 0.1 µM.

`COc1cc(C(=O)N2[C@@H](c3ncc(C)s3)[C@@H](c3cnccn3)C[C@@]2(Cc2cscn2)C(=O)O)ccc1C(C)(C)C` (racemic) [Example 15, rel-(2R,4S,5R)-1-(3-Methoxy-4-tert-butylbenzoyl)-5-(5-methyl-1,3-thiazol-2-yl)-4-(pyrazin-2-yl)-2-(1,3-thiazol-4-ylmethyl)pyrrolidine-2-carboxylic acid]: the figures for the 50% inhibitory concentration (IC50) in assay [1] and in assay [2] were below 10 µM and below 0.1 µM, respectively.

As to `COc1cc(C(=O)N2[C@@H](c3nccs3)[C@@H](c3cnccn3)C[C@@]2(CC(C)C)C(=O)O)ccc1C(C)(C)C` (single isomer, unassigned; enantiomer a) [Compound B, reference compound], the IC50 in assay [1] lay within 10 to 100 µM; in assay [2], 0.1 to 10 µM.

As for `COc1cc(C(=O)N2[C@@H](c3nccs3)[C@@H](c3cnccn3)C[C@@]2(Cc2cscn2)C(=O)O)ccc1C(C)(C)C` (single isomer, unassigned; enantiomer a) [Example 2], the IC50 is below 10 µM in assay [1] and below 0.1 µM in assay [2].

For `COc1cc(C(=O)N2[C@@H](c3nccs3)[C@@H](c3cnccn3)C[C@@]2(Cc2nccs2)C(=O)O)ccc1C(C)(C)C` (single isomer, unassigned; enantiomer a) [Example 4], the IC50 in assay [1] was below 10 µM; in assay [2], below 0.1 µM.

Take `COc1cc(C(=O)N2[C@@H](c3ncc(C)s3)[C@@H](c3cnccn3)C[C@@]2(Cc2ccsn2)C(=O)O)ccc1C(C)(C)C` (single isomer, unassigned; enantiomer a) [Example 6]: the results for the IC50 in assay [1] and in assay [2] were below 10 µM and below 0.1 µM, respectively.

The IC50 is the concentration at which inhibition is half-maximal. Low values mean greater potency, high ones weaker potency.
